Test results taken from the supplement of paper PMC10307832.

How the values were obtained:
Experiment in all cases: relative viability (nuclei count vs DMSO), 5 days (fraction); higher = more cells survive
[1] = compound: CCC1=CN=CN=C1N2CCN(CC2)CC3=NC4=C(N3)C=C(C=C4)C(F)(F)F + COc1cc2c(Oc3ccc(NC(=O)C4(C(=O)Nc5ccc(F)cc5)CC4)cc3F)ccnc2cc1OCCCN1CCOCC1 [Foretinib] (partner 0.25 µM)
Summary of the method: (§1)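 Lung cancer cell lines were seeded in 1536-well plates and dosed by pin tool the next day, with either a single drug or a fixed anchor-drug dose combined with five library-drug doses (not always all listed) spaced in √10 steps. Five days later, one step fixed the cells and stained their nuclei (final 0.05% Triton X-100, 1% formaldehyde, 1 ug/ml Hoechst), and nuclei were counted on 4× images. Relative viability is the nuclei count in treated wells divided by the count in vehicle wells, and each value is the median of duplicate plates.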

Mirin + Tozasertib = compound: N=C1NC(=O)/C(=C/c2ccc(O)cc2)S1 [Mirin] + Cc1cc(Nc2cc(N3CCN(C)CC3)nc(Sc3ccc(NC(=O)C4CC4)cc3)n2)n[nH]1 [Tozasertib] (partner 0.1 µM)
Summary of the method: as §1

[2] = compound: CCC1=CN=CN=C1N2CCN(CC2)CC3=NC4=C(N3)C=C(C=C4)C(F)(F)F + C[C@]1(O)C[C@@H](c2nc(-c3ccc4ccc(-c5ccccc5)nc4c3)c3c(N)nccn32)C1 [Linsitinib] (partner 1 µM)
Summary of the method: as §1

Mirin + Linsitinib = compound: N=C1NC(=O)/C(=C/c2ccc(O)cc2)S1 [Mirin] + C[C@]1(O)C[C@@H](c2nc(-c3ccc4ccc(-c5ccccc5)nc4c3)c3c(N)nccn32)C1 [Linsitinib] (partner 1 µM)
Summary of the method: as §1

Cell Line	relative viability ([1]; first compound 0.04 µM)	relative viability ([1]; first compound 0.1265 µM)	relative viability ([1]; first compound 0.4 µM)	relative viability ([1]; first compound 1.265 µM)	relative viability ([1]; first compound 4 µM)	relative viability (Mirin + Tozasertib; first compound 0.25 µM)	relative viability (Mirin + Tozasertib; first compound 0.7906 µM)	relative viability (Mirin + Tozasertib; first compound 2.5 µM)	relative viability (Mirin + Tozasertib; first compound 7.906 µM)	relative viability (Mirin + Tozasertib; first compound 25 µM)	relative viability ([2]; first compound 0.04 µM)	relative viability ([2]; first compound 0.1265 µM)	relative viability ([2]; first compound 0.4 µM)	relative viability ([2]; first compound 1.265 µM)	relative viability ([2]; first compound 4 µM)	relative viability (Mirin + Linsitinib; first compound 0.25 µM)	relative viability (Mirin + Linsitinib; first compound 0.7906 µM)	relative viability (Mirin + Linsitinib; first compound 2.5 µM)	relative viability (Mirin + Linsitinib; first compound 7.906 µM)	relative viability (Mirin + Linsitinib; first compound 25 µM)
HCC-78	0.585	0.631	0.491	0.51	0.539	0.409	0.492	0.386	0.337	0.33	0.38	0.584	0.478	0.464	0.335	0.537	0.585	0.519	0.445	0.475
HCC-366	0.856	1.01	0.915	0.877	0.851	0.15	–	0.602	0.0813	0.103	0.907	0.595	0.525	–	0.661	0.677	0.468	0.903	0.644	0.316
HCC-827	0.962	0.945	1.02	–	0.826	0.412	0.39	0.421	0.384	0.426	0.951	0.915	0.955	0.923	0.926	0.959	0.972	0.949	0.935	1.18
HOP-62	1.14	1.12	1.07	1.25	0.942	0.367	0.381	0.357	0.257	0.324	1.27	1.02	0.983	0.87	0.77	1.09	0.856	0.937	–	0.866
IA-LM	1.11	0.943	1.02	1.1	1.22	–	–	–	–	–	0.664	0.617	0.568	0.45	0.464	0.754	0.584	0.789	–	0.87
LC-2-ad	0.927	0.88	0.922	0.803	0.857	0.459	0.35	0.476	0.342	0.256	0.818	0.87	0.765	0.813	0.788	0.816	1.03	0.937	0.833	0.732
LCLC-97TM1	0.897	0.898	0.895	0.838	0.888	0.191	0.151	0.19	0.138	0.122	0.23	0.185	0.158	0.166	0.202	0.174	0.166	0.177	0.143	0.141
LCLC-103H	0.917	0.852	0.757	0.644	0.688	0.417	0.554	0.481	0.461	0.336	1.11	1.13	0.999	1.17	1.2	1.12	1.11	1.08	1.22	1.13
LK-2	1.29	1.41	1.09	1.12	0.743	0.188	–	0.149	0.166	0.16	0.739	0.515	0.588	0.319	0.598	0.321	0.317	0.516	0.282	0.174
LOU-NH91	0.863	0.984	0.909	0.966	0.92	0.661	0.614	0.673	0.465	0.42	0.807	0.923	0.963	0.87	1.04	0.956	–	1.01	0.936	1.04
LU99A	0.744	0.751	0.771	0.804	0.87	0.241	0.216	0.27	0.207	0.18	0.514	0.563	0.581	0.525	0.562	0.515	0.472	0.508	0.46	0.421
NCI-H522	–	–	–	–	–	0.491	0.538	0.582	0.517	0.472	–	–	–	–	–	–	–	–	–	–
NCI-H1299	1.1	1.02	1.12	1.11	1.08	–	–	–	–	–	1.05	0.935	0.979	0.968	0.955	0.984	0.966	0.978	0.879	1.2
NCI-H1563	0.961	1.01	0.938	0.844	0.917	–	–	–	–	–	1.27	1.24	1.27	1.18	1.1	1.16	1.32	1.19	1.18	1.19
NCI-H1623	0.835	0.819	0.767	0.749	0.794	0.448	0.429	0.423	0.436	0.377	–	–	–	–	–	–	–	–	–	–
NCI-H1648	–	–	–	–	–	0.444	0.608	0.506	0.466	0.251	–	–	–	–	–	–	–	–	–	–
NCI-H1650	1.26	0.893	0.931	–	0.808	0.379	0.483	0.421	0.325	0.277	–	–	–	–	–	–	–	–	–	–
NCI-H1703	0.344	0.366	0.369	0.381	0.372	–	–	–	–	–	0.595	0.669	0.851	0.473	0.771	0.797	0.353	0.967	–	0.916
NCI-H1792	–	–	–	–	–	–	–	–	–	–	0.522	0.543	0.497	0.424	0.511	0.597	0.592	0.617	0.505	0.589
NCI-H2170	1.01	0.975	0.94	0.867	1	0.709	0.747	0.713	0.652	0.504	–	–	–	–	–	–	–	–	–	–
NCI-H2342	1.16	0.95	0.945	0.528	0.607	0.474	0.636	0.625	0.49	0.459	–	–	–	–	–	–	–	–	–	–
SW 900	0.778	0.825	0.81	0.795	0.793	0.652	0.698	0.571	0.689	0.473	–	–	–	–	–	–	–	–	–	–
